The source of these data is ChEMBL document CHEMBL1128638, “Probing the hydrophobic pocket of the active site of aromatase with 4-phenoxy-7 alpha-(phenylthio)-4-androstene-3,17-dione” (J Med Chem, 1995).

Molecules are shown by their SMILES.

For this assay, the target named is T1, Aromatase (Homo sapiens, UniProt P11511).
T1 sequence (P11511 whole entry): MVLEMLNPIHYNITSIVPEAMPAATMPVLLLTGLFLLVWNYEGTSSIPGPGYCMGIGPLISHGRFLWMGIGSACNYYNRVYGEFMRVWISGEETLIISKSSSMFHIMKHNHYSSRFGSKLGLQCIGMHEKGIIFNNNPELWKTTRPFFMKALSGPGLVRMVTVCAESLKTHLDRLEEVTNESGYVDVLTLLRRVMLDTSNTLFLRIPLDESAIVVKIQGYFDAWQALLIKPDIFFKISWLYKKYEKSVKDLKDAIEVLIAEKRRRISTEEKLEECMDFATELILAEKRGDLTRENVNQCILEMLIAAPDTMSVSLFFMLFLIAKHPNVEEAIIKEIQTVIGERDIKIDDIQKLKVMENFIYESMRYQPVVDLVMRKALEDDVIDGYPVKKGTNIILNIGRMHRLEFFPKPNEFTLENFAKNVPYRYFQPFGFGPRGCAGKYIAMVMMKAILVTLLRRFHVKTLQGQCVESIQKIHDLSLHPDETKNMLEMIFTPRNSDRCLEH
The assay is described as follows: Inhibition of Cytochrome P450 19A1.

As for `C[C@]12CCC(=O)C=C1C[C@@H](Sc1ccccc1)[C@@H]1[C@@H]2CC[C@]2(C)C(=O)CC[C@@H]12`, the IC50 was found to be 0.65 µM.

`CC12CCC3C(CCC4=C(Oc5ccccc5)C(=O)CCC43C)C1CCC2=O` (centres undefined): inhibition was half-maximal at 0.53 µM (IC50).

As to `CC12CCC3C(C1CCC2=O)[C@H](Sc1ccccc1)CC1=C(Oc2ccccc2)C(=O)CCC13C` (some centres undefined), the IC50 was found to be 1.65 µM.

`CC12CCC3C(CCC4=C(Sc5ccccc5)C(=O)CCC43C)C1CCC2=O` (centres undefined): the IC50 is 0.19 µM.

By IC50 is commonly meant the point on the concentration scale where inhibition reaches its midpoint. High values mean weaker potency in that assay, low ones greater potency in that assay.
